Source: patent US5416087A, “Bis-benzo, cyclohepta piperidylidene, piperidine and piperazine compounds, compositions and methods of use” (priority 1993, dated 1995)

Columns and labels:
[1] = test system: PAF-induced platelet aggregation; assay: Platelet aggregation assay (PAF-induced aggregation of human platelet-rich plasma); assay type: cell-based; conditions: 2 min, human PRP, PAF 1-5×10^-8 M, 37° C., 2 min. incubation, read-out: PAF Antagonism (in vitro) IC50
Procedure: Platelet-activating factor (PAF) causes aggregation of platelets by a receptor-mediated mechanism. Therefore, PAF-induced platelet aggregation provides a simple and convenient assay to screen compounds for PAF antagonism.
Blood was centrifuged at 110×g for 15 min. and the supernatant platelet-rich plasma (PRP) carefully transferred into a polypropylene tube. Platelet-poor-plasma (PPP) was prepared by centrifuging PRP at 12,000×g for 2 min. (Beckman Microfuge B). PRP was used within 3 hr. of drawing the blood.
PAF was dissolved in chloroform:methanol (1:1, v/v) at a concentration of 2 mg/ml and stored at -70° C. An aliquot of this solution was transferred to a polypropylene tube and dried under a flow of nitrogen gas. […] This stock solution was further diluted to appropriate concentrations in Hepes-saline-BSA buffer. Collagen (Sigma) and adenosine diphosphate (ADP) (Sigma) were purchased as solutions. Test compounds were initially dissolved in dimethyl sulfoxide (DMSO) at a concentration of 50 mM and then further diluted in Hepes-saline-BSA buffer to achieve appropriate concentrations.
When an aggregating agent such as PAF is added to PRP, platelets aggregate. An aggregometer quantifies this aggregation by measuring and comparing light (infra-red) transmission through PPP and PRP. […]

[2] = test system: PAF (agonist bronchospasm); assay: PAF-induced bronchospasm in guinea pigs; assay type: in vivo, Male Hartley guinea pigs; conditions: dose 10 mg/kg oral, PAF 0.4 μg/kg i.v.
Procedure: (§1) Male Hartley guinea pigs (450-550 g) were obtained from Charles River Breeding Laboratories. The animals were fasted overnight and the following day were anesthetized with 0.9 ml/kg i.p. of dialurethane (containing 0.1 g/ml diallylbarbituric acid, 0.4 g/ml ethylurea and 0.4 g/ml urethane). The left jugular vein was cannulated for the administration of compounds. The trachea was cannulated and the animals were ventilated by a rodent respirator at 55 strokes/min. with a stroke volume of 4 ml. A side arm to the tracheal cannula was connected to a pressure transducer to obtain a continuous measure of inflation pressure. Bronchoconstriction was measured as the percent increase in inflation pressure that peaked within 5 min. after challenge with spasmogen. […] Each animal was challenged with only a single spasmogen. The effect of a compound on the bronchospasm is expressed as a percent inhibition of the increase in inflation pressure compared to the increase in a control group.

[3] = test system: Histamine (agonist bronchospasm); assay: Histamine-induced bronchospasm in guinea pigs; assay type: in vivo, Male Hartley guinea pigs; conditions: dose 1 mg/kg oral, histamine 10 ug/kg i.v.
Procedure: as §1

SMILES | IC50 [1] [nM] | PAF Agonist Bronchospasm (in vivo) - oral, % Inhibition [2] [%] | Histamine Agonist Bronchospasm (in vivo) - oral, % Inhibition [3] [%]
O=C(c1cc[n+]([O-])cc1)N1CCN(C2c3ccccc3-c3ccccc32)CC1 [Example 8] | 2500 |  | 
CCOC(=O)N1CCC(=C2c3ccc(Cl)cc3CCc3cccnc32)CC1 [Compound 1] |  | < 50 | > 50
